Source: PubChem BioAssay (NCI)
“And” between values parts separate entries of the source, which are not always exact repeats. Identical values can stand only once.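 Assay format: 96-well plates, 48-hour exposure. GI50 marks 50% less growth. TGI: concentration producing complete growth inhibition.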

Assays:
Assay in all cases: NCI anticancer screen, dose series, 48 h
ACHN renal = system: ACHN renal
CAKI-1 renal = system: CAKI-1 renal
COLO 205 colon = system: COLO 205 colon
KM12 colon = system: KM12 colon
MDA-N = system: MDA-N
NCI-H460 lung = system: NCI-H460 lung
SF-268 CNS = system: SF-268 CNS
NCI-H522 lung = system: NCI-H522 lung
SN12C renal = system: SN12C renal
BT-549 breast = system: BT-549 breast

Row | SMILES | TGI (ACHN renal) [µM] | TGI (CAKI-1 renal) [µM] | TGI (COLO 205 colon) [µM] | TGI (KM12 colon) [µM] | TGI (MDA-N) [µM] | TGI (NCI-H460 lung) [µM] | TGI (SF-268 CNS) [µM] | TGI (NCI-H522 lung) | TGI (SN12C renal) [µM] | TGI (BT-549 breast) [µM] | GI50 (COLO 205 colon) | GI50 (NCI-H522 lung) | GI50 (SN12C renal) | GI50 (BT-549 breast) [µM] | GI50 (CAKI-1 renal) [µM] | GI50 (KM12 colon) [µM] | GI50 (NCI-H460 lung) [µM] | GI50 (SF-268 CNS) [µM]
1 | CC(C)[Si](OC1=C(C(=O)N(C)c2cccc(Cl)c2)CCCC1)(C(C)C)C(C)C | 31.2 | 25.9 | 35 | 26.5 | 34.4 | 32.8 | 28.6 | – | – | – | – | – | – | – | – | – | – | –
2 | CC1OC(OC2C(O[C@H]3CC[C@@]4(C)C(=CC[C@H]5[C@@H]6C[C@@H]7O[C@]8(CC[C@@H](CO)CO8)[C@@H](C)[C@@H]7[C@@]6(C)CC[C@@H]54)C3)OC(CO)C(O)C2OC2OC(CO)C(O)C(O)C2O)C(O)C(O)C1O (stereo not given in full) | 3.25 | 3.55 | 3.42 | 3.57 | 3.06 | 3.18 | 3.54 | 3.19 µM | 3.21 | – | – | – | – | – | – | – | – | –
3 | C[C@]12CCC(=O)O[C@H]1CCCCO2 | – | > 100 | > 100 | > 100 | > 100 | > 100 | > 100 | > 100 µM | > 100 | – | – | – | – | – | – | – | – | –
4 | CCN(CC)C(=S)N/N=C(/C)c1cccc(/C(C)=N\NC(=S)N(CC)CC)n1 | 4.61 | 5.29 | 11.3 | 4.1 | 21.4 | 6.36 | 7.47 | 16 µM | 12.4 | – | – | – | – | – | – | – | – | –
5 | O=C(NI1OC(=O)c2ccccc21)c1ccc(Cl)cc1 | > 100 | > 100 | > 100 | > 100 | – | > 100 | > 100 | 35.2 µM | > 100 | > 100 | – | – | – | – | – | – | – | –
6 | COc1cc(/C=C(\C#N)C(N)=O)cc(Br)c1O | – | > 100 | > 100 | > 100 | – | > 100 | > 100 | 35.4 µM and 87.3 µM | > 100 | – | 73.8 µM and > 100 µM | 15.7 µM and 28.9 µM | > 100 µM and 34 µM | – | – | – | – | –
7 | CC(=O)OC(/C=C/c1ccccc1)=C(OC(C)C)/C1=C(\c2ccccc2)SCCCSC1=O | > 100 | > 100 | > 100 | > 100 | – | > 100 | > 100 | – | – | > 100 | – | – | – | – | – | – | – | –
8 | COC1C=CC(O)C(CO)O1 (stereo not given) | > 100 | – | – | > 100 | – | > 100 | – | > 100 µM | > 100 | – | – | – | – | – | – | – | – | –
9 | COc1cc(Cn2c3c(c4cc(O)ccc42)Cc2ccccc2C3=O)cc(OC)c1 | – | > 100 | > 100 | > 100 | > 100 | > 100 | > 100 | – | 57.3 | > 100 | – | – | – | – | – | – | – | –
10 | O=Cc1ccc2c(c1)CC1(Cc3ccccc3C1)C2 | 65.7 | – | 54.2 | > 100 | 38.9 | – | – | > 100 µM | 34.4 | – | – | – | – | – | – | – | – | –
11 | NN/C(=N\S(=O)(=O)c1cc2ccccc2s1)Nc1ccc(Cl)cc1 | 54.4 | 39.4 | 33 | 48.1 | – | 39.6 | 37.9 | – | 39 | 35.6 | – | – | – | – | – | – | – | –
12 | O=C(c1ccc(N=Cc2ccccc2O)cc1)c1ccc(N=Cc2ccccc2O)cc1 | > 100 | > 100 | > 100 | > 100 | – | > 100 | > 100 | > 100 µM | – | > 100 | – | – | – | – | – | – | – | –
13 | NC(N)=NCCC[C@H](N)C(=O)NCC(=O)N[C@@H](CC(=O)O)c1ncc(NC(=O)C(F)(F)F)o1 | > 25 | – | > 25 | > 25 | – | > 25 | > 25 | > 25 µM | – | > 25 | – | – | – | – | – | – | – | –
14 | CNc1ccc(C(=O)CC(O)CCC(C)C2OC(=O)CC(O)CC(=O)CC(O)CC(O)CC(O)CC(O)CC3(O)CC(O)C(C(=O)OC)C(CC(O[C@@H]4O[C@H](C)[C@@H](O)[C@H](N)[C@@H]4O)/C=C/C=C/C=C/C=C/C=C/C=C/C=C/C2C)O3)cc1 (stereo not given in full) | – | 4.89 | 6.6 | 12.4 | – | 10.1 | 7.46 | 6.03 µM | 2.99 | > 100 | 2.69 µM | 2.48 µM | 1.46 µM | 3.45 | 1.88 | 3.9 | 2.97 | 2.82
15 | O=C1C=CC[C@H]2O[C@@H](COC(=O)Cc3ccccc3)C[C@H]2O1 | > 100 | > 100 | > 100 | 42.4 | > 100 | > 100 | 56.2 | – | > 100 | – | – | – | – | – | – | – | – | –
16 | CC(C)=CCC/C(C)=C/C=C/C(C)=C/C=C/C(C)=C/C=C/C=C(C)/C=C/C=C(C)/C=C/[C@H]1C(C(C)(C)O)CC[C@]1(C)O (stereo not given in full) | 45.5 | > 100 | – | 70.6 | 81.6 | > 100 | 42.4 | 36.8 µM | – | – | – | – | – | – | – | – | – | –
17 | O=C1CCC(c2ccc(Cl)cc2)=NN1c1nsc2ccccc12 | > 100 | – | > 100 | > 100 | – | > 100 | > 100 | – | 67.3 | – | – | – | – | – | – | – | – | –
18 | CC1NC(=O)CC(c2ccccc2)N(N=O)C1c1ccccc1 (stereo not given) | – | > 100 | > 72.9 | > 100 | – | > 90.2 | > 100 | 49.7 µM | > 100 | – | – | – | – | – | – | – | – | –
